Data as given in paper PMC10961089, “Epidermal growth factor receptor inhibition potentiates chemotherapeutics‐mediated sensitization of metastatic breast cancer stem cells” (Cancer Reports, 2024).

Tests used:
Format in all cases: cell-based, human
MDA‐MB‐231 cells = experiment: Apoptosis assay, Hoechst 33342 staining; conditions: MDA-MB-231, combinatorial treatment with doxorubicin, 48 h, vs other treatment groups
Description: MDA‐MB‐231 cells were seeded at a density of 3 × 10^4 cells/well and cultured on a coverslip for 24 h at 37°C followed by 12 h serum starvation in 6‐well plates. The cells were treated with Doxorubicin (0.01 and 0.1 μM) in the absence or presence of compounds—1c, 1e, 1g, 1h, 1j, and 1k and incubated for 48 h. Post‐treatment, the cells were fixed using 4% Paraformaldehyde and stained with Hoechst 33342 dye (2 mg/mL; Invitrogen, USA) for 30 min. Apoptotic cells were identified by visualizing the fragmentation and condensation of nuclei using a confocal microscope (Olympus, USA).[30]

MDA‐MB‐468 = experiment: MTT cytotoxicity assay in MDA-MB-468
Description: TNBC cell lines (ER^−, PR^−, HER2^−)—MDA‐MB‐231 (ATCC HTB‐26) and MDA‐MB‐468 (ATCC HTB‐132) were procured from ATCC and cultured in Roswell Park Memorial Institute Media (RPMI‐1640) and Dulbecco's Modified Eagle's Medium (DMEM), respectively, supplemented with 10% FBS and 1% Penicillin–Streptomycin solution. Cells were maintained at 5% CO2 at 37°C in a humid atmosphere.[6], [26] The control cell line, Human Embryonic Kidney—HEK‐293 (ATCC CRL‐3216) was also obtained from ATCC and cultured in DMEM.[5], [25]
To evaluate the cytotoxicity profile of the potential EGFR inhibitors (compounds) against TNBC cell lines—MDA‐MB‐231, MDA‐MB‐468, and control cell line HEK293, cells were seeded at a cell density of 5 × 10^3 cells/well in complete medium onto 96‐well plates. Here, the non‐tumoral human embryonic kidney (HEK293) epithelial cells have been utilized as a control cell line to compare the IC50 values of the compounds between cancerous and non‐cancerous cell lines with a big therapeutic window. The use of HEK293 cells as compared to other non‐cancerous cell lines are easy to maintain in culture and the results obtained from HEK293 are highly reproducible and consistent.[27] Briefly, the cells were incubated at 37°C for 12 h to attain morphology. After 12 h, cells were serum starved by replacing the complete media with media containing 2% FBS to synchronize the cells. Post‐12 h of synchronization, cells were treated with an increasing concentration (0.1, 1, 10, 100 μM) of all the compounds (1a, 1b, 1c, 1d, 1e, 1f, 1g, 1h, 1i, 1j, 1k). Separately, TNBC cells were treated with increasing concentration (0.01, 0.1, 1 μM) of Doxorubicin (Sigma‐Aldrich, St Louis, MO, USA) in presence of the selected compounds (1c, 1e, 1g, 1h, 1j, and 1k) at 5 μM concentration or combination of selected compounds (1c, 1e, 1g, 1h, 1j, and 1k) at increasing concentration (1, 2.5, 5, 10 μM) in presence of Doxorubicin (0.01 μM) for 48 h. In addition, the CD24^+‐breast cancer cells and CD24^−/CD44^+‐breast CSC populations, being sorted by Magnetic Activated Cell Sorting (MACS) from MDA‐MB‐231 cells as described previously,[6] were also treated with increasing concentrations of Doxorubicin (0.01–1 μM), in the presence or absence of 1e (10–30 μM), or PD153035 (10 μM) (Sigma‐Aldrich, St Louis, MO, USA). MTT assay was performed to evaluate the cytotoxicity of these compounds against the TNBC cell lines, and the sorted populations as described previously.[6] All the experiments were performed thrice and the IC50 values of the compounds and Doxorubicin were calculated using GraphPad Prism software version 9 (San Diego, CA, USA). Similarly, the percent inhibition of the sorted cell populations by chemotherapeutic drug, doxorubicin in the absence/presence of potent compound 1e or standard EGFR inhibitor, PD153035 was evaluated utilizing GraphPad Prism Version 9 (San Diego, CA, USA).

[1] = system: CD24^−/CD44^+‐breast CSC population sorted from MDA‐MB‐231; experiment: MTT assay in sorted breast CSC population; conditions: doxorubicin 0.01 μM + 1e 5 μM vs doxorubicin 0.01 μM alone
Description: To evaluate the cytotoxicity profile of the potential EGFR inhibitors (compounds) against TNBC cell lines—MDA‐MB‐231, MDA‐MB‐468, and control cell line HEK293, cells were seeded at a cell density of 5 × 10^3 cells/well in complete medium onto 96‐well plates. Here, the non‐tumoral human embryonic kidney (HEK293) epithelial cells have been utilized as a control cell line to compare the IC50 values of the compounds between cancerous and non‐cancerous cell lines with a big therapeutic window. The use of HEK293 cells as compared to other non‐cancerous cell lines are easy to maintain in culture and the results obtained from HEK293 are highly reproducible and consistent.[27] Briefly, the cells were incubated at 37°C for 12 h to attain morphology. After 12 h, cells were serum starved by replacing the complete media with media containing 2% FBS to synchronize the cells. […] All the experiments were performed thrice and the IC50 values of the compounds and Doxorubicin were calculated using GraphPad Prism software version 9 (San Diego, CA, USA). Similarly, the percent inhibition of the sorted cell populations by chemotherapeutic drug, doxorubicin in the absence/presence of potent compound 1e or standard EGFR inhibitor, PD153035 was evaluated utilizing GraphPad Prism Version 9 (San Diego, CA, USA).

SMILES: c1cncc(C(c2c[nH]c3ccccc23)c2c[nH]c3ccccc23)c1 [1e]
- doxorubicin‐induced nuclear fragmentation (apoptosis) (MDA‐MB‐231 cells): markedly increased
- decrease in the IC50 of Doxorubicin in the presence of the compound (MDA‐MB‐468; MDA-MB-468, versus Doxorubicin alone): 10 fold
- IC50 (MDA‐MB‐468; compound alone, MTT, 48 h, read-out: IC50 (μM) in MDA‐MB‐468 (mean ± SD)): 36 ± 5.91 µM
- increase of percent inhibition of cell proliferation versus doxorubicin alone [1]: 6.1 folds
